The source of these data is the NIST ThermoML archive (doi:10.1021/je800497u).

What is called mass density is mass per unit of volume. By viscosity is commonly meant the internal friction of a fluid under shear.

Numbers after ± are expanded uncertainties.

For this data set the following is noted: 101 kPa, Liquid.

On to `CCCO` [propan-1-ol], for which, for the setting “293.15 K”, the mass density is 803.5 ± 0.7 kg/m3 and the viscosity stood at 2.272 ± 0.052 mPa·s. Also, under “298.15 K”, the mass density was determined as 799.6 ± 0.7 kg/m3 and the viscosity is 1.966 ± 0.045 mPa·s.
